Experiments:
HCV replicon genotype 1a = assay: microbe, parasite or virus in culture; type: cell-based, hepatitis C virus (HCV); conditions: Hepatitis C virus, 96 h, read-out: 1a IC50 (nM)
HCV replicon genotype 1b = assay: microbe, parasite or virus in culture; type: cell-based, hepatitis C virus (HCV); conditions: Hepatitis C virus, 96 h, read-out: 1b IC50 (nM)

| SMILES | IC50 (HCV replicon genotype 1a) | IC50 (HCV replicon genotype 1b) |
| --- | --- | --- |
| CNC(=O)c1c(-c2ccc(F)cc2)oc2cc(N(C)S(C)(=O)=O)c(-c3ccc4nnn(Cc5ccc(F)cc5OC)c(=O)c4c3)cc12 [Compound 47, 5-[3-(4-fluoro-2-methoxybenzyl)-4-oxo-3,4-dihydro-1,2,3-benzotriazin-6-yl]-2-(4-fluorophenyl)-N-methyl-6-[methyl(methylsulfonyl)amino]-1-benzofuran-3-carboxamide] | 20.2 nM | 20.6 nM |
| CNC(=O)c1c(-c2ccc(F)cc2)oc2cc(N(C)S(C)(=O)=O)c(-c3ccc4nnn(Cc5ccc(F)cn5)c(=O)c4c3)cc12 [Compound 48, 2-(4-fluorophenyl)-5-{3-[(5-fluoropyridin-2-yl)methyl]-4-oxo-3,4-dihydro-1,2,3-benzotriazin-6-yl}-N-methyl-6-[methyl(methylsulfonyl)amino]-1-benzofuran-3-carboxamide] | 6.93 nM | 5.97 nM |
| CNC(=O)c1c(-c2ccc(F)cc2)oc2cc(N(C)S(C)(=O)=O)c(-c3ccc4ncn(Cc5ccccc5)c(=O)c4c3)cc12 [Compound 49, 5-(3-benzyl-4-oxo-3,4-dihydroquinazolin-6-yl)-2-(4-fluorophenyl)-N-methyl-6-(N-methylmethylsulfonamido)benzofuran-3-carboxamide] | 6.25 nM | 10.2 nM |
| CNC(=O)c1c(-c2ccc(F)cc2)oc2cc(N(C)S(C)(=O)=O)c(-c3ccc4ncn([C@H](C)c5ccc(F)cc5)c(=O)c4c3)cc12 [Compound 50, 2-(4-fluorophenyl)-5-{3-[(1R)-1-(4-fluorophenyl)ethyl]-4-oxo-3,4-dihydroquinazolin-6-yl}-N-methyl-6-[methyl(methylsulfonyl)amino]-1-benzofuran-3-carboxamide] | 3.18 nM | 4.23 nM |
| CNC(=O)c1c(-c2ccc(F)cc2)oc2cc(N(C)S(C)(=O)=O)c(-c3ccc4ncn(Cc5ccc(F)cc5OC)c(=O)c4c3)cc12 [Compound 51, 5-[3-(4-fluoro-2-methoxybenzyl)-4-oxo-3,4-dihydroquinazolin-6-yl]-2-(4-fluorophenyl)-N-methyl-6-[methyl(methylsulfonyl)amino]-1-benzofuran-3-carboxamide] | 8.98 nM | 2.35 nM |
| CNC(=O)c1c(-c2ccc(F)cc2)oc2cc(N(C)S(C)(=O)=O)c(-c3ccc4ncn(Cc5ccc(F)cn5)c(=O)c4c3)cc12 [Compound 52, 2-(4-fluorophenyl)-5-{3-[(5-fluoropyridin-2-yl)methyl]-4-oxo-3,4-dihydroquinazolin-6-yl}-N-methyl-6-[methyl(methylsulfonyl)amino]-1-benzofuran-3-carboxamide] | 6.37 nM | 2.11 nM |
| CNC(=O)c1c(-c2ccc(F)cc2)oc2cc(N(C)S(C)(=O)=O)c(-c3ccc4nc(COC)n(Cc5ccc(F)cc5)c(=O)c4c3)cc12 [Compound 53, 5-(3-(4-fluorobenzyl)-2-(methoxymethyl)-4-oxo-3,4-dihydroquinazolin-6-yl)-2-(4-fluorophenyl)-N-methyl-6-(N-methylmethylsulfonamido)benzofuran-3-carboxamide] | 2.57 nM | 2.45 nM |
| CNC(=O)c1c(-c2ccc(F)cc2)oc2cc(N(C)S(C)(=O)=O)c(-c3ccc4nc(CNC(C)=O)n(Cc5ccc(F)cc5)c(=O)c4c3)cc12 [Compound 54, 5-{2-[(acetylamino)methyl]-3-(4-fluorobenzyl)-4-oxo-3,4-dihydroquinazolin-6-yl}-2-(4-fluorophenyl)-N-methyl-6-[methyl(methylsulfonyl)amino]-1-benzofuran-3-carboxamide] | 2.34 nM | 2.73 nM |
| CNC(=O)c1c(-c2ccc(F)cc2)oc2cc(N(C)S(C)(=O)=O)c(-c3ccc4nc(C)n(Cc5ccc(F)cc5)c(=O)c4c3)cc12 [Compound 55, 5-[3-(4-fluorobenzyl)-2-methyl-4-oxo-3,4-dihydroquinazolin-6-yl]-2-(4-fluorophenyl)-N-methyl-6-[methyl(methylsulfonyl)amino]-1-benzofuran-3-carboxamide] | 1.93 nM | 2.42 nM |
| CNC(=O)c1c(-c2ccc(F)cc2)oc2cc(N(C)S(C)(=O)=O)c(-c3ccc4nc(C)n([C@H](C)c5ccc(F)cc5)c(=O)c4c3)cc12 [Compound 57, (R)-2-(4-fluorophenyl)-5-(3-(1-(4-fluorophenyl)ethyl)-2-methyl-4-oxo-3,4-dihydroquinazolin-6-yl)-N-methyl-6-(N-methylmethylsulfonamido)benzofuran-3-carboxamide] | 9.65 nM | 9.82 nM |
| CNC(=O)c1c(-c2ccc(F)cc2)oc2cc(N(C)S(C)(=O)=O)c(-c3ccc4nc(C)n(Cc5ccc(F)cc5OC)c(=O)c4n3)cc12 [Compound 63, 5-(3-(4-fluoro-2-methoxybenzyl)-2-methyl-4-oxo-3,4-dihydropyrido[3,2-d]pyrimidin-6-yl)-2-(4-fluorophenyl)-N-methyl-6-(N-methylmethylsulfonamido)benzofuran-3-carboxamide] | 23.7 nM | 9 nM |
| CNC(=O)c1c(-c2ccc(F)cc2)oc2cc(N(C)S(C)(=O)=O)c(-c3ccc4nc(C)n(Cc5ccc(F)cc5F)c(=O)c4n3)cc12 [Compound 64, 5-(3-(2,4-difluorobenzyl)-2-methyl-4-oxo-3,4-dihydropyrido[3,2-d]pyrimidin-6-yl)-2-(4-fluorophenyl)-N-methyl-6-(N-methylmethylsulfonamido)benzofuran-3-carboxamide] | 4.12 nM | 3.63 nM |
| CNC(=O)c1c(-c2ccc(F)cc2)oc2cc(N(C)S(C)(=O)=O)c(-c3ccc4nc(C)n([C@@H](COC)c5ccc(F)cc5)c(=O)c4n3)cc12 [Compound 65, (R)-2-(4-fluorophenyl)-5-(3-(1-(4-fluorophenyl)-2-methoxyethyl)-2-methyl-4-oxo-3,4-dihydropyrido[3,2-d]pyrimidin-6-yl)-N-methyl-6-(N-methylmethylsulfonamido)benzofuran-3-carboxamide] | 9.28 nM | 2.95 nM |
| CNC(=O)c1c(-c2ccc(F)cc2)oc2cc(N(C)S(C)(=O)=O)c(-c3ccc4nc(C)n([C@H](CCO)c5ccc(F)cc5)c(=O)c4n3)cc12 [Compound 66, (R)-2-(4-fluorophenyl)-5-(3-(1-(4-fluorophenyl)-3-hydroxypropyl)-2-methyl-4-oxo-3,4-dihydropyrido[3,2-d]pyrimidin-6-yl)-N-methyl-6-(N-methylmethylsulfonamido)benzofuran-3-carboxamide] | 7.29 nM | 4.06 nM |
| CNC(=O)c1c(-c2ccc(F)cc2)oc2cc(N(C)S(C)(=O)=O)c(-c3ccc4nc(C)n([C@H](COC)c5ccc(F)cc5)c(=O)c4n3)cc12 [Compound 67, (S)-2-(4-fluorophenyl)-5-(3-(1-(4-fluorophenyl)-2-methoxyethyl)-2-methyl-4-oxo-3,4-dihydropyrido[3,2-d]pyrimidin-6-yl)-N-methyl-6-(N-methylmethylsulfonamido)benzofuran-3-carboxamide] | 4.97 nM | 3.77 nM |
| CNC(=O)c1c(-c2ccc(F)cc2)oc2cc(N(C)S(C)(=O)=O)c(-c3ccc4nc(C)n(Cc5ccc(F)cc5)c(=O)c4n3)cc12 [Compound 68, 5-(3-(4-fluorobenzyl)-2-methyl-4-oxo-3,4-dihydropyrido[3,2-d]pyrimidin-6-yl)-2-(4-fluorophenyl)-N-methyl-6-(N-methylmethylsulfonamido)benzofuran-3-carboxamide] | 2 nM | 2.24 nM |
| CNC(=O)c1c(-c2ccc(F)cc2)oc2cc(N(C)S(C)(=O)=O)c(-c3cc(OC)c4nc(C)n(Cc5ccc(F)cc5)c(=O)c4c3)cc12 [Compound 69, 5-(3-(4-fluorobenzyl)-8-methoxy-2-methyl-4-oxo-3,4-dihydroquinazolin-6-yl)-2-(4-fluorophenyl)-N-methyl-6-(N-methylmethylsulfonamido)benzofuran-3-carboxamide] | 6.64 nM | 10.1 nM |
| CNC(=O)c1c(-c2ccc(F)cc2)oc2cc(N(C)S(C)(=O)=O)c(-c3cc4c(=O)n(Cc5ccc(F)cc5)nnc4cc3F)cc12 [Compound 70, 5-(7-fluoro-3-(4-fluorobenzyl)-4-oxo-3,4-dihydrobenzo[d][1,2,3]triazin-6-yl)-2-(4-fluorophenyl)-N-methyl-6-(N-methylmethylsulfonamido)benzofuran-3-carboxamide] | 11.3 nM | 2.61 nM |
| CNC(=O)c1c(-c2ccc(F)cc2)oc2cc(N(C)S(C)(=O)=O)c(-c3cc(OC)c4nnn(Cc5ccc(F)cc5)c(=O)c4c3)cc12 [Compound 71, 5-[3-(4-fluorobenzyl)-8-methoxy-4-oxo-3,4-dihydro-1,2,3-benzotriazin-6-yl]-2-(4-fluorophenyl)-N-methyl-6-[methyl(methylsulfonyl)amino]-1-benzofuran-3-carboxamide] | 3.49 nM | 0.782 nM |
| CNC(=O)c1c(-c2ccc(F)cc2)oc2cc(N(C)S(C)(=O)=O)c(-c3cc4c(=O)n(Cc5ccc(F)cc5)nnc4cc3C)cc12 [Compound 72, 5-[3-(4-fluorobenzyl)-7-methyl-4-oxo-3,4-dihydro-1,2,3-benzotriazin-6-yl]-2-(4-fluorophenyl)-N-methyl-6-[methyl(methylsulfonyl)amino]-1-benzofuran-3-carboxamide] | 8.62 nM | 6.47 nM |
| CNC(=O)c1c(-c2ccc(F)cc2)oc2cc(N(C)S(C)(=O)=O)c(-c3cc4c(=O)n(Cc5ccc(F)cc5)nnc4cc3Cl)cc12 [Compound 73, 5-[7-chloro-3-(4-fluorobenzyl)-4-oxo-3,4-dihydro-1,2,3-benzotriazin-6-yl]-2-(4-fluorophenyl)-N-methyl-6-[methyl(methylsulfonyl)amino]-1-benzofuran-3-carboxamide] | 11.6 nM | 7.65 nM |
| CNC(=O)c1c(-c2ccc(F)cc2)oc2cc(N(C)S(C)(=O)=O)c(-c3cc(C)c4nnn(Cc5ccc(F)cc5)c(=O)c4c3)cc12 [Compound 74, 5-[3-(4-fluorobenzyl)-8-methyl-4-oxo-3,4-dihydro-1,2,3-benzotriazin-6-yl]-2-(4-fluorophenyl)-N-methyl-6-[methyl(methylsulfonyl)amino]-1-benzofuran-3-carboxamide] | 11.9 nM | 7.08 nM |

Source: patent US9364482B2, “Substituted benzofuran compounds and methods of use thereof for the treatment of viral diseases” (priority 2013, dated 2016)
